Source: paper PMC4775997, “Imidazopyridazine Inhibitors of Plasmodium falciparum Calcium-Dependent Protein Kinase 1 Also Target Cyclic GMP-Dependent Protein Kinase and Heat Shock Protein 90 To Kill the Parasite at Different Stages of Intracellular Development” (Antimicrobial Agents and Chemotherapy, 2016)
Like-named read-outs stand apart in the source and are kept apart here.

Key:
P. falciparum 3D7 [1] = test: SYBR green I growth assay, wild-type parasites; assay type: cell-based, Plasmodium falciparum
PfPKG = target: T1, PfPKG (Plasmodium falciparum, UniProt Q8I719); test: Microfluidic fluorescent shift assay of cGMP-dependent protein kinase activity; assay type: biochemical; conditions: read-out: Enzyme inhibition IC50, PKG
T1 construct: plasmids (pTrcHisC) encoding full-length PfPKG and PfPKG T618Q with N-terminal His tags; His tag (N); made in house; host or cells: E. coli Rosetta2(DE3)

PfPKG T618Q = target: T2, PfPKG T618Q (Plasmodium falciparum, UniProt Q8I719, T618Q); test: biochemical; assay type: biochemical; conditions: for IC50: read-out: Enzyme inhibition IC50, PKG T618Q
T2 construct: plasmids (pTrcHisC) encoding full-length PfPKG and PfPKG T618Q with N-terminal His tags; His tag (N); made in house; host or cells: E. coli Rosetta2(DE3)

CDPK1 = CDPK1 (Plasmodium falciparum, UniProt P62344); test: biochemical; assay type: biochemical; conditions: Table S2; read-out: Enzyme inhibition IC50, CDPK1
3D7 PKG T618Q = test: microbe, parasite or virus in culture; assay type: cell-based, Plasmodium falciparum; conditions: for EC50: read-out: Parasite inhibition EC50, 3D7 PKG T618Q
P. falciparum 3D7 [2] = test: Microscopic examination of Giemsa-stained smears (stage of action); conditions: for Stage of action (before or after DNA synthesis): Table S1, ring-stage parasites, 10x EC50 for 48 h; for Stage of action: ring stage parasites treated with 10 times the 96-h EC50 for 48 h
[3] = Table S1, single experiment with duplicate samples, or mean of triplicate experiments (SD), read-out: EC50 96 hours
[4] = Table S1, single experiment with duplicate samples, or mean of triplicate experiments (SD), read-out: EC50 48 hours
[5] = Plasmodium falciparum, 3D7, 96 h
[6] = Plasmodium falciparum, 3D7, 48 h, read-out: EC50 after treatment for 48 h
[7] = Plasmodium falciparum, 3D7, 96 h, read-out: EC50 96 hours
[8] = Plasmodium falciparum, 3D7, 96 h, read-out: EC50 after treatment for 96 h
[9] = Plasmodium falciparum, 3D7, 96 h, read-out: Parasite inhibition EC50, 3D7
[10] = Table 2, SYBR green I, 96 h, single experiment, or mean (SD) of duplicate assays

T2 sequence (Q8I719 whole entry T618Q): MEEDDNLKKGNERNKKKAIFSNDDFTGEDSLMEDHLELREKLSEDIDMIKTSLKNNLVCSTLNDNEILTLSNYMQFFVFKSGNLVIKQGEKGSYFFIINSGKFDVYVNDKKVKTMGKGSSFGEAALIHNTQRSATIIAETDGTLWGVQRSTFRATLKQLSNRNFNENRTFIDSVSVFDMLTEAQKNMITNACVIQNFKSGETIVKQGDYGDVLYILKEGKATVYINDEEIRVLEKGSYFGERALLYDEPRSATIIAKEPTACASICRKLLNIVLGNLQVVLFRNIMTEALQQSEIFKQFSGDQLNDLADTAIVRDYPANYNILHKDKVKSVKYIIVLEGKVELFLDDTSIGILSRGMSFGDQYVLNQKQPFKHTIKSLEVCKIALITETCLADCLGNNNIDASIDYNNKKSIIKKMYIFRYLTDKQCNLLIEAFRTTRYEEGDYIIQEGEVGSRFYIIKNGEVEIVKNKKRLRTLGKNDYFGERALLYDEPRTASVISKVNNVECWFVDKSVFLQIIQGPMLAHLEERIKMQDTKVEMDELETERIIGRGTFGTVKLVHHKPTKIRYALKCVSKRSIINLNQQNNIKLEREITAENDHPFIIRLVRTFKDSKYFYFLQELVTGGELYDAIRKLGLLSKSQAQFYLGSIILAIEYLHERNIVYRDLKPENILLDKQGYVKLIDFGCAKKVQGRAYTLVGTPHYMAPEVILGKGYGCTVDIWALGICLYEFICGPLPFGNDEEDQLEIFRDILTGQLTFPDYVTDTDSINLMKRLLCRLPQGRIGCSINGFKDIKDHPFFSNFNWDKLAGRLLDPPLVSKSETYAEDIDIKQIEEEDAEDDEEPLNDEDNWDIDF
Sequence of CDPK1 (P62344 whole entry): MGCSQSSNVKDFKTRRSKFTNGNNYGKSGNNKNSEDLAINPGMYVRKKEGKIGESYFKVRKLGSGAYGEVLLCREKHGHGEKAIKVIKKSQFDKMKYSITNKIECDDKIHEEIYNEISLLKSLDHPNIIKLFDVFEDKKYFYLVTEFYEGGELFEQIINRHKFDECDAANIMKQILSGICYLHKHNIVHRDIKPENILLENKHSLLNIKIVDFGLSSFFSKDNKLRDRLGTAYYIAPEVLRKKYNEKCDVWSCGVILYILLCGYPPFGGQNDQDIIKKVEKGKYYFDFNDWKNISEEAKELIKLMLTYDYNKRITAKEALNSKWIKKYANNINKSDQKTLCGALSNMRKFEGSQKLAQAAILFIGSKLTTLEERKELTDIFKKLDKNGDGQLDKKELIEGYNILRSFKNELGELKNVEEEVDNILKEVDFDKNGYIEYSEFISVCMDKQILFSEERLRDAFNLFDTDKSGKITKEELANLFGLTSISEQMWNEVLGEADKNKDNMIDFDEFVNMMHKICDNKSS

Compound | EC50 (P. falciparum 3D7 [1]; [3]) [µM] | IC50 (PfPKG; Table S2) [µM] | ratio EC5048:EC5096 (P. falciparum 3D7 [1]; Table S1) | EC50 (P. falciparum 3D7 [1]; [4]) [µM] | IC50 (PfPKG T618Q; Table S2) [µM] | further results
CC(C)CCNc1ncc(-c2cnc3ccc(NC4CCC(N)CC4)nn23)cn1 (centres unmarked) [Compound 37] | 0.65 | – | – | – | – | –
Fc1cccnc1Nc1ccc(-c2cnc3ccc(NC4CCNCC4)nn23)cn1 [Compound 24] | 0.71 | 0.062 | 3.4 | 2.45 | 1.25 | Selectivity PKG T618Q/PKG (PfPKG T618Q; Table S2): 20; IC50 (CDPK1): 0.011 µM
NC1CCC(Nc2ccc3ncc(-c4ccc(Nc5ncccc5F)cc4)n3n2)CC1 (centres unmarked) [Compound 9] | 0.4 | 0.048 | – | 0.62 | 16.8 | –
CC(C)CCNc1ncc(-c2cnc3ccc(NC4CCNCC4)nn23)cn1 [Compound 29] | 0.64 | 0.093 | 5.4 | 3.46 | 0.88 | Selectivity PKG T618Q/PKG (PfPKG T618Q; Table S2): 10; IC50 (CDPK1): 0.018 µM
CC(C)CCNc1ncc(-c2cnc3ccc(NC4CCN(C)CC4)nn23)cn1 [Compound 23] | 0.99 | 0.16 | 2.5 | 2.49 | 4.76 | Selectivity PKG T618Q/PKG (PfPKG T618Q; Table S2): 30; IC50 (CDPK1): 0.014 µM
CN1CCC(Nc2ccc3ncc(-c4cnc(Nc5ncccc5F)nc4)n3n2)CC1 [Compound 33] | 0.03 | 0.005 | – | – | 10 | –
NC1CCC(Nc2ccc3ncc(-c4cnc(Nc5ncccc5F)nc4)n3n2)CC1 (centres unmarked) [Compound 36] | – | – | – | – | – | EC50 (3D7 PKG T618Q; [5]): 0.901 µM; EC50 (P. falciparum 3D7 [1]; [6]): > 1000 µM; EC50 (P. falciparum 3D7 [1]; [7]): 0.02 µM; EC50 (P. falciparum 3D7 [1]; [8]): 0.023 µM; EC50 (P. falciparum 3D7 [1]; [9]): 0.034 µM; EC50 after treatment for 48 h (P. falciparum 3D7 [1]; SYBR green I, 48 h incubation, mean of three independent experiments (SD)): not able to be determined with any accuracy; Stage of action (before or after DNA synthesis) (P. falciparum 3D7 [2]): late schizont; Stage of action (P. falciparum 3D7 [2]): Late schizont
c1cnc(Nc2ncc(-c3cnc4ccc(NC5CCNCC5)nn34)cn2)cn1 [Compound 40] | 1.23 | – | – | – | – | –
CCCCNc1ccc(-c2cnc3ccc(N4CCC(N)CC4)nn23)cn1 [Compound 19] | 0.26 | – | 2.2 | 0.57 | – | –
CC(C)CCNc1ccc(-c2cnc3ccc(NC4CCN(C)CC4)nn23)cn1 [Compound 43] | – | – | – | – | – | EC50 (3D7 PKG T618Q; [10]): 0.093 µM; EC50 (P. falciparum 3D7 [1]; Table S2, 96 h, read-out: Parasite inhibition EC50, 3D7): 0.079 µM
CCCCNc1ccc(-c2cnc3ccc(N4CCN(C)CC4)nn23)cn1 [Compound 14] | 1.18 | – | 1.8 | 2.1 | – | –
Fc1cc(-c2cnc3ccc(NC4CCNCC4)nn23)ccc1Nc1ccccn1 [Compound 21] | 0.69 | 0.087 | 2.4 | 1.63 | 3.77 | Selectivity PKG T618Q/PKG (PfPKG T618Q; Table S2): 44; IC50 (CDPK1): 0.01 µM
CN1CCC(Nc2ccc3ncc(-c4cc(F)c(Nc5ncccc5F)c(F)c4)n3n2)CC1 [Compound 8] | 0.66 | 0.237 | 1.5 | 0.99 | 64.6 | Selectivity PKG T618Q/PKG (PfPKG T618Q; Table S2): 272; IC50 (CDPK1): 0.017 µM
Fc1cc(-c2cnc3ccc(NC4CCNCC4)nn23)cnc1Nc1cnccn1 [Compound 27] | 0.84 | 0.101 | 5.1 | 4.3 | 10 | Selectivity PKG T618Q/PKG (PfPKG T618Q; Table S2): 99; IC50 (CDPK1): 0.017 µM
Fc1cc(-c2cnc3ccc(NC4CCNCC4)nn23)cnc1Nc1ccccn1 [Compound 25] | 0.54 | 0.054 | 3.6 | 1.96 | 9.93 | Selectivity PKG T618Q/PKG (PfPKG T618Q; Table S2): 182; IC50 (CDPK1): 0.013 µM
Fc1cccnc1Nc1ncc(-c2cnc3ccc(NCCN4CCNCC4)nn23)cn1 [Compound 30] | 0.05 | – | 6.0 | 0.31 | – | –
Fc1cccnc1Nc1ncc(-c2cnc3ccc(NC4CCC(N5CCOCC5)CC4)nn23)cn1 (centres unmarked) [Compound 41] | – | – | – | – | – | EC50 (3D7 PKG T618Q; [5]): 0.923 µM; EC50 (P. falciparum 3D7 [1]; [6]): > 1000 µM; EC50 (P. falciparum 3D7 [1]; [7]): 0.04 µM; EC50 (P. falciparum 3D7 [1]; [8]): 0.037 µM; EC50 (P. falciparum 3D7 [1]; [9]): 0.042 µM; Stage of action (before or after DNA synthesis) (P. falciparum 3D7 [2]): late schizont; Developmental arrest seen in smears (P. falciparum 3D7 [2]; parasites about 21 h after invasion, 48 h at 10 times the EC50 determined by FACS (compound C 0.3 μM, compound D 4 μM)): arrested prior to merozoite egress; Stage of action (P. falciparum 3D7 [2]): Late schizont
c1ccc(Nc2ncc(-c3cnc4ccc(NC5CCNCC5)nn34)cn2)nc1 [Compound 26] | 0.2 | 0.02 | 4.2 | 0.83 | 3.28 | Selectivity PKG T618Q/PKG (PfPKG T618Q; Table S2): 161; IC50 (CDPK1): 0.009 µM
CC(C)CCNc1ccc(-c2cnc3ccc(NC4CCN(C)C4)nn23)cn1 (centres unmarked) [Compound 6] | 0.42 | – | 1.4 | 0.59 | – | –
CN1CCC(Nc2ccc3ncc(-c4cc(F)c(Nc5ccccn5)c(F)c4)n3n2)CC1 [Compound 2] | 1.04 | 0.069 | – | 1.28 | 12.8 | –
c1nc(N2CCCCC2)ncc1-c1cnc2ccc(NC3CCNCC3)nn12 [Compound 34] | 1.18 | – | – | – | – | –
c1ccc(-n2cc(-c3cnc4ccc(NC5CCNCC5)nn34)cn2)cc1 [Compound 10] | 0.46 | – | 1.6 | 0.72 | – | –
CN1CCC(Nc2ccc3ncc(-c4ccc(Nc5ncccc5F)nc4)n3n2)CC1 [Compound 17] | 0.58 | 0.118 | – | 1.15 | 12.1 | –
CN1CCC(Nc2ccc3ncc(-c4ccc(Nc5ccccn5)c(F)c4)n3n2)CC1 [Compound 16] | – | 0.088 | – | – | 10.6 | –
CC(C)CCNc1ccc(-c2cnc3ccc(N4CCC(N)CC4)nn23)cn1 [Compound 12] | 0.25 | – | 1.6 | 0.41 | – | –
Fc1cccnc1Nc1ncc(-c2cnc3ccc(NC4CCC(N5CCCC5)CC4)nn23)cn1 (centres unmarked) [Compound 39] | – | – | – | – | – | EC50 (3D7 PKG T618Q; [10]): 0.982 µM; Decrease in potency against the PKG T618Q variant parasite (3D7 PKG T618Q; versus 3D7 WT, 96 h SYBR green I): 29 fold; IC50 (PfPKG; Table 2, ATP at Km 20 μM): 0.002 µM; EC50 (P. falciparum 3D7 [1]; SYBR green I, 48 h incubation, mean of three independent experiments (SD), read-out: EC50 after treatment for 48 h): > 1000 µM; EC50 (P. falciparum 3D7 [1]; SYBR green I, 96 h incubation, mean of three independent experiments (SD), read-out: EC50 after treatment for 96 h): 0.02 µM; EC50 (P. falciparum 3D7 [1]; Table 2, SYBR green I, 96 h, single experiment, or mean (SD) of duplicate assays, read-out: Parasite inhibition EC50, 3D7): 0.034 µM; Stage of action (before or after DNA synthesis) (P. falciparum 3D7 [2]): late schizont; Stage of action (P. falciparum 3D7 [2]): Late schizont; IC50 (PfPKG T618Q; Table 2, ATP at Km 90 μM): 25.5 µM
CN1CCC(Nc2ccc3ncc(-c4ccc(Nc5cnccn5)cc4)n3n2)CC1 [Compound 3] | 0.61 | – | 1.3 | 0.76 | – | –
CN1CCC(Nc2ccc3ncc(-c4ccc(Nc5ncccc5F)cc4)n3n2)CC1 [Compound 18] | 0.6 | 0.404 | – | 1.22 | 15.7 | –
CC(C)CCNc1ccc(-c2cnc3ccc(N4CCC(N(C)C)CC4)nn23)cn1 [Compound 5] | 0.39 | – | 1.4 | 0.54 | – | –
